Reference: PubChem BioAssay AID330 (DTP/NCI, 2004)
“And” between values parts separate entries of the source, which are not always exact repeats. Identical values can stand only once. Inconclusive results and toxic doses are left out.

System: P388 leukemia ip, CD2F1 mice, survival T/C
Experiment: NCI In Vivo Anticancer Drug Screen. Data for tumor model P388 Leukemia (intraperitoneal) in CD2F1 (CDF1) mice
Conditions: endpoint: median survival time, higher = longer survival
How it was run: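 Mice carrying the transplanted tumor received test compound or vehicle. Survival was recorded in each group, and the value is the treated-group measurement divided by that of the vehicle-treated control group.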

[1] = dose: 60.0 mg/kg/injection, schedule: Q01DX005 (ip), vehicle: saline with Tween-80
[2] = dose: 120.0 mg/kg/injection, schedule: Q01DX005 (ip), vehicle: saline with Tween-80
[3] = dose: 240.0 mg/kg/injection, schedule: Q01DX005 (ip), vehicle: saline with Tween-80
[4] = dose: 100.0 mg/kg/injection, schedule: Q04DX003 (ip), vehicle: saline with Tween-80
[5] = dose: 200.0 mg/kg/injection, schedule: Q04DX003 (ip), vehicle: saline with Tween-80
[6] = dose: 400.0 mg/kg/injection, schedule: Q04DX003 (ip), vehicle: saline with Tween-80
[7] = dose: 25.0 mg/kg/injection, schedule: Q01DX009 (ip), vehicle: water
[8] = dose: 50.0 mg/kg/injection, schedule: Q01DX009 (ip), vehicle: water
[9] = dose: 100.0 mg/kg/injection, schedule: Q01DX009 (ip), vehicle: water
[10] = dose: 200.0 mg/kg/injection, schedule: Q01DX009 (ip), vehicle: water
[11] = dose: 50.0 mg/kg/injection, schedule: Q01DX005 (ip), vehicle: Klucel (hydroxypropylcellulose) (HPC)
[12] = dose: 100.0 mg/kg/injection, schedule: Q01DX005 (ip), vehicle: Klucel (hydroxypropylcellulose) (HPC)
[13] = dose: 200.0 mg/kg/injection, schedule: Q01DX005 (ip), vehicle: Klucel (hydroxypropylcellulose) (HPC)
[14] = dose: 100.0 mg/kg/injection, schedule: Q01DX009 (ip), vehicle: saline
[15] = dose: 400.0 mg/kg/injection, schedule: Q01DX009 (ip), vehicle: saline
[16] = dose: 100.0 mg/kg/injection, schedule: Q01DX001 (ip), vehicle: Klucel (hydroxypropylcellulose) (HPC)
[17] = dose: 200.0 mg/kg/injection, schedule: Q01DX001 (ip), vehicle: Klucel (hydroxypropylcellulose) (HPC)
[18] = dose: 400.0 mg/kg/injection, schedule: Q01DX001 (ip), vehicle: Klucel (hydroxypropylcellulose) (HPC)
[19] = dose: 200.0 mg/kg/injection, schedule: Q01DX009 (ip), vehicle: saline

Structure (SMILES): O=C1c2ccccc2C(=O)c2c3c(cc([N+](=O)[O-])c21)OCO3
- T/C [1]: 100 % of control
- T/C [2]: 89 % of control
- T/C [3]: 87 % of control

Structure (SMILES): CCOC(=O)c1[nH]cnc1/N=N/N(C)CCO
- T/C [4]: 109 % of control
- T/C [5]: 113 % of control
- T/C [6]: 118 % of control

Structure (SMILES): CCCCOC1NC(=O)NC(=O)C1(F)C(=O)OCC (centres undefined)
- T/C [1]: 108 % of control
- T/C [2]: 117 % of control
- T/C [3]: 121 % of control

Structure (SMILES): CC(=O)NC1CCOC1=O (centres undefined)
- T/C (dose: 12.5 mg/kg/injection, schedule: Q01DX009 (ip), vehicle: water): 95 % of control
- T/C [7]: 87 % of control
- T/C [8]: 109 % of control
- T/C [9]: 111 % of control
- T/C [10]: 92 % of control

Structure (SMILES): COCC#CCN(C)C
- T/C (dose: 60.0 mg/kg/injection, schedule: Q01DX005 (ip), vehicle: saline): 95 % of control
- T/C (dose: 120.0 mg/kg/injection, schedule: Q01DX005 (ip), vehicle: saline): 99 % of control
- T/C (dose: 240.0 mg/kg/injection, schedule: Q01DX005 (ip), vehicle: saline): 95 % of control

Structure (SMILES): Cn1c(=O)oc2cc(N)c(Br)cc21
- T/C [11]: 90 % of control
- T/C [12]: 92 % of control
- T/C [13]: 94 % of control

Structure (SMILES): CCOC(=O)c1n[nH]c(=S)[nH]c1=O
- T/C [11]: 104 % of control
- T/C [12]: 108 % of control
- T/C [13]: 101 % of control

Structure (SMILES): NC(N)=Nc1ccc(C(=O)Oc2ccc([N+](=O)[O-])cc2)cc1
- T/C [4]: 104 % of control
- T/C [5]: 100 % of control
- T/C [6]: 95 % of control

Structure (SMILES): CC1(C)CC(=O)C=C(NC2CCCCC2)C1
- T/C (dose: 50.0 mg/kg/injection, schedule: Q01DX009 (ip), vehicle: saline with Tween-80): 91 % of control
- T/C (dose: 100.0 mg/kg/injection, schedule: Q01DX009 (ip), vehicle: saline with Tween-80): 100 % of control

Structure (SMILES): Nc1cc(-c2ccc(Br)cc2)nn1-c1nc(-c2ccc(Br)cc2)cs1
- T/C (dose: 25.0 mg/kg/injection, schedule: Q01DX009 (ip), vehicle: Klucel (hydroxypropylcellulose) (HPC)): 87 % of control
- T/C (dose: 50.0 mg/kg/injection, schedule: Q01DX009 (ip), vehicle: Klucel (hydroxypropylcellulose) (HPC)): 86 % of control
- T/C (dose: 100.0 mg/kg/injection, schedule: Q01DX009 (ip), vehicle: Klucel (hydroxypropylcellulose) (HPC)): 87 % of control
- T/C (dose: 200.0 mg/kg/injection, schedule: Q01DX009 (ip), vehicle: Klucel (hydroxypropylcellulose) (HPC)): 89 % of control

Structure (SMILES): O=c1[nH]cnc2nc(/N=N/SCCO)[nH]c12
- T/C (dose: 25.0 mg/kg/injection, schedule: Q01DX005 (ip), vehicle: Klucel (hydroxypropylcellulose) (HPC)): 104 % of control
- T/C [11]: 110 % of control
- T/C [12]: 119 % of control

Structure (SMILES): O=C(NCSC1=NCCS1)NCSC1=NCCS1
- T/C (dose: 50.0 mg/kg/injection, schedule: Q01DX009 (ip), vehicle: suspension in saline): 101 % of control and 103 % of control
- T/C [14]: 91 % of control
- T/C (dose: 100.0 mg/kg/injection, schedule: Q01DX009 (ip), vehicle: suspension in saline): 100 % of control and 93 % of control
- T/C (dose: 200.0 mg/kg/injection, schedule: Q01DX009 (ip), vehicle: suspension in saline): 100 % of control and 105 % of control
- T/C [15]: 94 % of control
- T/C (dose: 400.0 mg/kg/injection, schedule: Q01DX009 (ip), vehicle: suspension in saline): 101 % of control and 98 % of control

Structure (SMILES): NC(=O)NN(Cc1ccc(Br)cc1)N=O
- T/C [16]: 96 % of control
- T/C [17]: 97 % of control
- T/C [18]: 97 % of control

Structure (SMILES): O=C(NO)C1CCCCC1O (centres undefined)
- T/C (dose: 12.5 mg/kg/injection, schedule: Q04DX003 (ip), vehicle: saline): 100 % of control
- T/C (dose: 25.0 mg/kg/injection, schedule: Q04DX003 (ip), vehicle: saline): 100 % of control
- T/C (dose: 50.0 mg/kg/injection, schedule: Q04DX003 (ip), vehicle: saline): 110 % of control
- T/C (dose: 400.0 mg/kg/injection, schedule: Q04DX003 (ip), vehicle: saline): 110 % of control

Structure (SMILES): CCCCCCCCCCCC(=O)NC1CC(O[C@H]2C[C@](O)(C(C)=O)Cc3c(O)c4c(c(O)c32)C(=O)c2c(OC)cccc2C4=O)OC(C)C1O (some centres undefined)
- T/C (dose: 0.75 mg/kg/injection, schedule: Q01DX009 (ip), vehicle: other): 119 % of control
- T/C (dose: 2.0 mg/kg/injection, schedule: Q04DX003 (ip), vehicle: other): 91 % of control
- T/C (dose: 4.0 mg/kg/injection, schedule: Q04DX003 (ip), vehicle: other): 107 % of control
- T/C (dose: 6.0 mg/kg/injection, schedule: Q01DX009 (ip), vehicle: other): 150 % of control
- T/C (dose: 8.0 mg/kg/injection, schedule: Q04DX003 (ip), vehicle: other): 98 % of control
- T/C (dose: 12.0 mg/kg/injection, schedule: Q01DX009 (ip), vehicle: other): 158 % of control
- T/C (dose: 16.0 mg/kg/injection, schedule: Q04DX003 (ip), vehicle: other): 102 % of control and 111 % of control
- T/C (dose: 32.0 mg/kg/injection, schedule: Q04DX003 (ip), vehicle: other): 114 % of control and 120 % of control
- T/C (dose: 64.0 mg/kg/injection, schedule: Q04DX003 (ip), vehicle: other): 120 % of control
- T/C (dose: 128.0 mg/kg/injection, schedule: Q04DX003 (ip), vehicle: other): 123 % of control
- T/C (dose: 256.0 mg/kg/injection, schedule: Q04DX003 (ip), vehicle: other): 100 % of control

Structure (SMILES): O=C(Oc1ccc[nH]c1=O)c1ccc(F)cc1
- T/C (dose: 50.0 mg/kg/injection, schedule: Q01DX009 (ip), vehicle: saline): 99 % of control and 104 % of control
- T/C [14]: 100 % of control and 101 % of control
- T/C [19]: 106 % of control and 108 % of control
- T/C [15]: 111 % of control

Structure (SMILES): C[S+](C)C
- T/C [14]: 110 % of control
- T/C [19]: 110 % of control
- T/C [15]: 110 % of control

Structure (SMILES): CCCCCCCCCCCCCCCc1cccc(OC)c1C(=O)OC
- T/C (dose: 20.0 mg/kg/injection, schedule: Q01DX009 (ip), vehicle: saline): 109 % of control
- T/C (dose: 40.0 mg/kg/injection, schedule: Q01DX009 (ip), vehicle: saline): 106 % of control
- T/C (dose: 80.0 mg/kg/injection, schedule: Q01DX009 (ip), vehicle: saline): 104 % of control

Structure (SMILES): CN(C)CCSc1cc(O)c2c(c1O)C(=O)c1ccccc1C2=O
- T/C (dose: 12.5 mg/kg/injection, schedule: Q04DX003 (ip), vehicle: water): 107 % of control
- T/C [7]: 102 % of control
- T/C (dose: 25.0 mg/kg/injection, schedule: Q04DX003 (ip), vehicle: water): 98 % of control
- T/C [8]: 103 % of control
- T/C (dose: 50.0 mg/kg/injection, schedule: Q04DX003 (ip), vehicle: water): 102 % of control
- T/C [9]: 102 % of control
- T/C (dose: 100.0 mg/kg/injection, schedule: Q04DX003 (ip), vehicle: water): 102 % of control
- T/C [10]: 97 % of control
- T/C (dose: 200.0 mg/kg/injection, schedule: Q04DX003 (ip), vehicle: water): 118 % of control

Structure (SMILES): COc1ccc2c(c1)[C@H]1[C@H]([C@H]3O[C@@H]1c1ccccc13)S(=O)N2 (some centres undefined)
- T/C [11]: 95 % of control
- T/C [12]: 96 % of control
- T/C [13]: 92 % of control

Structure (SMILES): O=C1CC=C2C3CC4N(CCC45c4ccccc4N1C25)C/C3=C\CBr (centres undefined)
- T/C (dose: 1.87 mg/kg/injection, schedule: Q01DX005 (ip), vehicle: Klucel (hydroxypropylcellulose) (HPC)): 105 % of control
- T/C (dose: 3.75 mg/kg/injection, schedule: Q01DX005 (ip), vehicle: Klucel (hydroxypropylcellulose) (HPC)): 103 % of control
- T/C (dose: 7.5 mg/kg/injection, schedule: Q01DX005 (ip), vehicle: Klucel (hydroxypropylcellulose) (HPC)): 101 % of control and 105 % of control

Structure (SMILES): CCOC(=O)C1(CC)CC(OCC)OC1=O (centres undefined)
- T/C [11]: 100 % of control
- T/C [12]: 93 % of control
- T/C [13]: 97 % of control

Structure (SMILES): Cn1c(Cl)c(/C=C2/N=C(c3ccccc3)OC2=O)c2ccccc21
- T/C [16]: 94 % of control
- T/C [17]: 94 % of control
- T/C [18]: 94 % of control

Structure (SMILES): Cc1nc2cc[nH]n2c(=O)c1CCc1ccccc1
- T/C [1]: 90 % of control
- T/C [2]: 88 % of control

Structure (SMILES): NC(CS(=O)(=O)O)C(=O)O (centres undefined)
- T/C (dose: 100.0 mg/kg/injection, schedule: Q04DX002 (ip), vehicle: saline): 105 % of control
- T/C (dose: 200.0 mg/kg/injection, schedule: Q04DX002 (ip), vehicle: saline): 96 % of control
